The numbers were not newly measured in US20100172982A1, “SUSTAINED RELEASE FORMULATIONS OF DIVALPROEX SODIUM” (SUN PHARMACEUTICAL INDUSTRIES LIMITED, priority 2007, published 2010), which cites them from elsewhere.

For the series the following is noted: children.

For the compound `CCCC(CCC)C(=O)O` [valproic acid, 2-propylpenatnoic acid], the elimination half-life result was “four and fourteen”.
